Measured values from ChEMBL document CHEMBL6109040, “Tyrosine kinase 2 inhibitors: Synthesis and applications in the treatment of autoimmune diseases” (Eur J Med Chem, 2025).
pIC50, pKd, pKi: −log10 of the molar value.

Tests used:
[1] = biological target: T1, Tyrosine-protein kinase JAK1 (Homo sapiens, UniProt P23458); test: Binding affinity to recombinant human JAK1 JH2 (553 to 856 residues) pseudokinase domain assessed as inhibition constant by fluorescence polarization assay
[2] = biological target: T1, Tyrosine-protein kinase JAK1; test: Inhibition of JAK1 (unknown origin)
[3] = Inhibition of IL-12 induced IFNgamma production in human NK92 cells; type: functional, cell-based, NK-92
[4] = biological target: T2, Non-receptor tyrosine-protein kinase TYK2 (Homo sapiens, UniProt P29597); test: Binding affinity to recombinant human TYK2 JH2 (564 to 876 residues) pseudokinase domain assessed as dissociation constant by fluorescence polarization assay
T2 sequence (P29597 whole entry, the tested form may be a part): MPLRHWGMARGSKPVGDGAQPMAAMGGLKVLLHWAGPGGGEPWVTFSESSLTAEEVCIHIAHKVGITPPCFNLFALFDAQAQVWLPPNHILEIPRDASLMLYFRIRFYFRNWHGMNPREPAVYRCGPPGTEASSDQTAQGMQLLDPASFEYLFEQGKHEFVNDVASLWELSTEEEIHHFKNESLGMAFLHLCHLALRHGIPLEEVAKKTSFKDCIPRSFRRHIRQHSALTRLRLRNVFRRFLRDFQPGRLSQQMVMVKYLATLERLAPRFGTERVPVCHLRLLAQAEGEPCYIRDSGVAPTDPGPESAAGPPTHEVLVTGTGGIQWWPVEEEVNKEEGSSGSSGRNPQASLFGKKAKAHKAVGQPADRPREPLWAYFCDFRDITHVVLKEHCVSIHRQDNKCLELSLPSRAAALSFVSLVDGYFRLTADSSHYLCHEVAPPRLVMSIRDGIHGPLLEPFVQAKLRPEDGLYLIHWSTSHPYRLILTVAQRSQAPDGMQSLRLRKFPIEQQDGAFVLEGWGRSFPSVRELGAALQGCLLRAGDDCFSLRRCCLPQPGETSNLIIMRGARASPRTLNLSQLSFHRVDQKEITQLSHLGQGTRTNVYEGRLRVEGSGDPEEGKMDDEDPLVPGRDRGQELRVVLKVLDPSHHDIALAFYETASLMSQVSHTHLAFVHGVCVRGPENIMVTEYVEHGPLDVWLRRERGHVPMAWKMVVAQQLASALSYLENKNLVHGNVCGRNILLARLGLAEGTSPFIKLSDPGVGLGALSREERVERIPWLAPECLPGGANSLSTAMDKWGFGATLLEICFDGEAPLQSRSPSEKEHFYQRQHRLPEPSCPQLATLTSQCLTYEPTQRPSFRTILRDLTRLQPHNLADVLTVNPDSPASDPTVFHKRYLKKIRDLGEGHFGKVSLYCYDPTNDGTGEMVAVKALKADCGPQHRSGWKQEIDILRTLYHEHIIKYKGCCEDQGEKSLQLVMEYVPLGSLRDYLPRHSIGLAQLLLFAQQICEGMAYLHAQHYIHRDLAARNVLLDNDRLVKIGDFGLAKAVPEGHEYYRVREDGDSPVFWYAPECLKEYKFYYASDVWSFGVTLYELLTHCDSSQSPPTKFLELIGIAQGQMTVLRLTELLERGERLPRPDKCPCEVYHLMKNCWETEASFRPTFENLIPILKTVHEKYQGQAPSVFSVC

[5] = Inhibition of IFNalpha-induced STAT5 phosphorylation in human PBMC cells; type: cell-based
[6] = biological target: T2, Non-receptor tyrosine-protein kinase TYK2; test: Binding affinity to TYK2 JH2 (556 to 888 residues) pseudokinase domain (unknown origin) assessed as dissociation constant by KINOMEscan assay
[7] = biological target: T2, Non-receptor tyrosine-protein kinase TYK2; test: Inhibition of TYK2 JH2 pseudokinase domain (unknown origin) by TR-FRET assay
[8] = biological target: Tyrosine-protein kinase JAK2 (Homo sapiens, UniProt O60674); test: Binding affinity to JAK2 […] pseudokinase domain (unknown origin) assessed as dissociation constant by TR-FRET assay
Chain of Tyrosine-protein kinase JAK2 (O60674 whole entry, the tested form may be a part): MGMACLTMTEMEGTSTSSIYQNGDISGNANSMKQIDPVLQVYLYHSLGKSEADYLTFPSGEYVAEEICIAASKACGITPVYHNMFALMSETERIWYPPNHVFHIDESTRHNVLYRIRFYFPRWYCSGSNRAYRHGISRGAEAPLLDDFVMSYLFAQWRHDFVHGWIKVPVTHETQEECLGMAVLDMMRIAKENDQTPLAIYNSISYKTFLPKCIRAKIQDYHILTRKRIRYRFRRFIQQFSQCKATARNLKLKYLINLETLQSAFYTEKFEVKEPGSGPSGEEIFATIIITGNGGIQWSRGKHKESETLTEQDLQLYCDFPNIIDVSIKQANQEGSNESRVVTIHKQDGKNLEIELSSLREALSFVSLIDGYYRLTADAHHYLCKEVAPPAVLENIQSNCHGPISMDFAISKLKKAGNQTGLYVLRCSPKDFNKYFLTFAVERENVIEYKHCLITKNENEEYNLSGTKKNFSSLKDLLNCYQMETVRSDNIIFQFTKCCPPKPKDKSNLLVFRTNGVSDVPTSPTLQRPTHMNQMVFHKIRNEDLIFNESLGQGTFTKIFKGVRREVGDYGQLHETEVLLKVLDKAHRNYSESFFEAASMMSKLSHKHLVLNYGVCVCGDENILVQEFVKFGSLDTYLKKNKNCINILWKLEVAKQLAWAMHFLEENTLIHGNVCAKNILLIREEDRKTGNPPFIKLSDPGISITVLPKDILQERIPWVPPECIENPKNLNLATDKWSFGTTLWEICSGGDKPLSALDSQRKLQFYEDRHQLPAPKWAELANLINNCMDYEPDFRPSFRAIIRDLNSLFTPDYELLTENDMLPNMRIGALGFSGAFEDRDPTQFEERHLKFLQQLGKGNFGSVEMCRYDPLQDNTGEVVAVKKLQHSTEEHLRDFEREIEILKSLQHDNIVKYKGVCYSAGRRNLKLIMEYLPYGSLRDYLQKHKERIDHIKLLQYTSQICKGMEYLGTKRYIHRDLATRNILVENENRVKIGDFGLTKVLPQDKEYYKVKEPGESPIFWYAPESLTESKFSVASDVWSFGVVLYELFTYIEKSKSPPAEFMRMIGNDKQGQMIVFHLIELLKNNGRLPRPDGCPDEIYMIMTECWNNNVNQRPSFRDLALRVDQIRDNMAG

[9] = AUC in BALB/c mouse at 5 mg/kg, po by LC-MS/MS analysis; type: ADME, organism-based; conditions: in vivo
[10] = Cmax in BALB/c mouse at 5 mg/kg, po by LC-MS/MS analysis; type: ADME, organism-based; conditions: in vivo

T1 sequence (P23458 whole entry, the tested form may be a part): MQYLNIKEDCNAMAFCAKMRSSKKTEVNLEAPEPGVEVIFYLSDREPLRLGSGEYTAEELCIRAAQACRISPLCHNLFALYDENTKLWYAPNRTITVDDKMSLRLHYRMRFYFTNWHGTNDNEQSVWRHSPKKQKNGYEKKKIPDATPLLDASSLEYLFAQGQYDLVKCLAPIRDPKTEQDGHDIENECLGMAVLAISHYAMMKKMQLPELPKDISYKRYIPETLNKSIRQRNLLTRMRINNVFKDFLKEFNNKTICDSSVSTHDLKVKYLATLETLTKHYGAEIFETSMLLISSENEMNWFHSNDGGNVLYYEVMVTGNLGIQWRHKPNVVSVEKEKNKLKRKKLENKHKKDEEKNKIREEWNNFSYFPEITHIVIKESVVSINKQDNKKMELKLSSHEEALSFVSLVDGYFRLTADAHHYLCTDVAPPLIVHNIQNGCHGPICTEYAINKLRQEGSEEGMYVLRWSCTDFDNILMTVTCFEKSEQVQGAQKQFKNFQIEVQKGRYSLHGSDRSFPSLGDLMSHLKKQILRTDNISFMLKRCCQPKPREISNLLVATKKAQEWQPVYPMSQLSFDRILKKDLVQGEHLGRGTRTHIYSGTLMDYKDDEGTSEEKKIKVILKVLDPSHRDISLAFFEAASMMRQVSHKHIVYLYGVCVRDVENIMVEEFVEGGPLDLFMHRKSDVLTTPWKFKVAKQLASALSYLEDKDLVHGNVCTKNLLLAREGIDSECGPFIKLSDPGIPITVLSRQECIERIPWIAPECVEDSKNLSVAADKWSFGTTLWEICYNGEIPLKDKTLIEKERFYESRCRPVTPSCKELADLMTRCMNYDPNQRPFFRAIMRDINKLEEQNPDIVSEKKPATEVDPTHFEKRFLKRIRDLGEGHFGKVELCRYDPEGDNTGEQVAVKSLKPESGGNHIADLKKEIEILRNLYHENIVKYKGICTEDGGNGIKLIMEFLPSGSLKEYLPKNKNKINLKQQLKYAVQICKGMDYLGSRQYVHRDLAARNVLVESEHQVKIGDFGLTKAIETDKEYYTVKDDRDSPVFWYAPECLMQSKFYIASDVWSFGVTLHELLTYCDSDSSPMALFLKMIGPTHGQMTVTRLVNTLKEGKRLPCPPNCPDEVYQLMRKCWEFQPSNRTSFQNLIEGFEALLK

CO[C@@]1(c2cc(C)cc(-n3cc(C4CC4)c4cnc(NC(C)=O)cc43)n2)CCOC1
pKi [1]: < 5.00

CNC(=O)c1nnc(NC(=O)N2CCC2)cc1Nc1cccc(-c2ncn(C)n2)c1OC
pIC50 [2]: 5.23

NC(=O)c1nnc(-c2c(F)cccc2F)cc1Nc1ccc(N2CCOCC2)cn1
pIC50 [3]: 7.10

CNc1cc2nn3c(cnc13)C(=O)N[C@H](C)COCc1ccc(OC)c(c1)N2
pKd [4]: 10.64 | pIC50 [5]: 8.77 | pKd [6]: 10.66

CC(=O)Nc1cc(Nc2cccc(S(C)(=O)=O)n2)c(-c2ccccn2)cn1
pIC50 [3]: 9.61

CNC(=O)c1cnc2cc1Nc1cc(cc(-c3ccn(C)n3)c1OC)CCOCc1cccc(n1)N2
pIC50 [7]: > 9.00 | pKd [8]: < 5.00

[2H]C([2H])([2H])N1Cc2nc(NC(=O)C3CC3)cc(Nc3cccc(-c4ncn(C)n4)c3OC)c2C1=O
AUC [9]: 3650 ng·h/mL | Cmax [10]: 1160 ng/mL
